The results in this text go back to PubChem BioAssay (NCI).

Each structure is given as a SMILES string. Several values for one entry are separate records, joined by “and”; a condition that tells them apart may be missing. Equal entries are not always repeated.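 Grown in 96-well plates, cells were treated for 48 hours with each compound at five concentrations. Insufficient inhibition: endpoint recorded as highest concentration tested. At the GI50, growth is halved. TGI: total growth inhibition.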

Some test systems named below: HCT-116 colon; OVCAR-4 ovarian; NCI-H23 lung; DU-145 prostate; SNB-75 CNS; NCI-H226 lung; MCF7 breast; SK-MEL-28 melanoma; MOLT-4 leukemia; HOP-92 NSCLC.
Holding throughout (assay): inhibition of tumour cell growth, NCI panel, 48 h

In the case of `C=C1C(=O)O[C@H]2[C@H]1CC/C(COC(=O)NCCc1ccc(OC)cc1)=C\CC[C@@]1(C)O[C@@H]21`, the GI50 in the assay with HCT-116 colon is 1.34 µM; in the assay on OVCAR-4 ovarian, 3.41 µM; in the assay on NCI-H23 lung, 4.34 µM; in the assay with DU-145 prostate, 1.92 µM; in the assay on SNB-75 CNS, 4.09 µM; in the assay on NCI-H226 lung, 4.11 µM. For the same compound, the GI50 in the assay on MCF7 breast is 1.89 µM; with SK-MEL-28 melanoma, 1.99 µM; in the assay on MOLT-4 leukemia it was 2.61 µM; in the assay on HOP-92 NSCLC, 1.99 µM. Moreover, the TGI is 2.84 µM in the assay with HCT-116 colon; 13.6 µM in the assay on OVCAR-4 ovarian; 18.6 µM in the assay with NCI-H23 lung; 5.16 µM with DU-145 prostate; 16.6 µM in the assay on SNB-75 CNS; 16.4 µM in the assay on NCI-H226 lung. Further, the TGI with MCF7 breast came out at 4.79 µM; in the assay with SK-MEL-28 melanoma, 4.39 µM; in the assay with MOLT-4 leukemia, 6.77 µM; with HOP-92 NSCLC it was 6.19 µM.
Consider `Cc1ccc(NC(=O)c2ccnc(C(F)(F)F)c2)cc1-c1cc(OCCO)nc(N2CCOCC2)c1`, for which the GI50 with HCT-116 colon was 0.7 µM; in the assay with OVCAR-4 ovarian, 3.95 µM; with NCI-H23 lung, 0.916 µM; in the assay on DU-145 prostate it was 4.09 µM; with SNB-75 CNS it was 1.46 µM; with NCI-H226 lung, 2.81 µM. For the same compound, the GI50 with MCF7 breast is 2.28 µM; in the assay on SK-MEL-28 melanoma, 0.377 µM; in the assay with MOLT-4 leukemia, 3.5 µM; in the assay with HOP-92 NSCLC, 0.196 µM. The TGI in the assay with HCT-116 colon is over 100 µM; with OVCAR-4 ovarian it was 21.5 µM; in the assay on NCI-H23 lung it was 12.5 µM; in the assay with DU-145 prostate it was 61.2 µM; with SNB-75 CNS, 7.29 µM; in the assay with NCI-H226 lung it was 34.6 µM. For the same compound, the TGI with MCF7 breast was 17.8 µM; in the assay on SK-MEL-28 melanoma, 11.3 µM; with MOLT-4 leukemia, over 100 µM; with HOP-92 NSCLC, 4.78 µM.
Consider `COc1ccc(NC2=C(Sc3nc(C)cc(C)n3)C(=O)N(Cc3ccccc3)C2=O)cc1Cl`, for which the GI50 was 39 µM in the assay on HCT-116 colon; 107 µM in the assay with OVCAR-4 ovarian; over 160 µM in the assay on NCI-H23 lung; over 160 µM in the assay with DU-145 prostate; 40.8 µM in the assay on SNB-75 CNS; 39.5 µM in the assay with NCI-H226 lung. In addition, the GI50 with MCF7 breast is 56.8 µM; with SK-MEL-28 melanoma, over 160 µM; in the assay on MOLT-4 leukemia it was 14.4 µM; in the assay on HOP-92 NSCLC, 29.4 µM. In addition, the TGI in the assay with HCT-116 colon, in the assay with OVCAR-4 ovarian, in the assay on NCI-H23 lung, with DU-145 prostate, in the assay with SNB-75 CNS and in the assay with NCI-H226 lung was over 160 µM in each case. Also, the TGI in the assay on MCF7 breast, in the assay with SK-MEL-28 melanoma, in the assay with MOLT-4 leukemia and with HOP-92 NSCLC was over 160 µM throughout.
Take `CC1C(=O)N=C2C(=CN(Cc3ccccc3)c3ccccc32)C(=O)N1C` (stereo unspecified): the TGI in the assay with HCT-116 colon, in the assay with OVCAR-4 ovarian, with NCI-H23 lung, with DU-145 prostate, in the assay on SNB-75 CNS and in the assay on NCI-H226 lung was over 100 µM in each case. The TGI with MCF7 breast, in the assay on SK-MEL-28 melanoma and in the assay on HOP-92 NSCLC was over 100 µM throughout.
As to `Clc1nc(Cl)c2ncn(C/C=C\Cn3cnc4c(Cl)nc(Cl)nc43)c2n1`, the GI50 in the assay on HCT-116 colon is 1.48 µM; in the assay with OVCAR-4 ovarian it was 1.79 µM; with NCI-H23 lung, 2.09 µM; in the assay with DU-145 prostate, 1.54 µM; in the assay on SNB-75 CNS it was 2.73 µM; in the assay on NCI-H226 lung, 2.53 µM. The GI50 with MCF7 breast is 1.39 µM; in the assay on SK-MEL-28 melanoma, 1.94 µM; with MOLT-4 leukemia, 2.05 µM. The TGI with HCT-116 colon is 3.26 µM; in the assay on OVCAR-4 ovarian, 3.26 µM; in the assay with NCI-H23 lung, 5.11 µM; in the assay on DU-145 prostate it was 2.89 µM; in the assay with SNB-75 CNS, 7.91 µM; with NCI-H226 lung, 6.23 µM. Further, the TGI was 3.21 µM in the assay on MCF7 breast, 3.68 µM in the assay with SK-MEL-28 melanoma and 4.11 µM in the assay with MOLT-4 leukemia.
With `CCCCCCC(C)CC(CCCCCC)NCCOC(=O)c1ccc([N+](=O)[O-])cc1` (stereo unspecified), the TGI in the assay with HCT-116 colon is 28.1 µM and 24.1 µM; in the assay with OVCAR-4 ovarian, 26.5 µM and 26.9 µM; in the assay on NCI-H23 lung, 38.9 µM and 34.5 µM; with DU-145 prostate, 30.1 µM and 25.6 µM; with SNB-75 CNS it was 30.4 µM and 33.4 µM; in the assay with NCI-H226 lung it was 29.4 µM and 28.6 µM. In addition, the TGI in the assay on MCF7 breast is 28.3 µM and 21 µM; in the assay on SK-MEL-28 melanoma, 27 µM; with HOP-92 NSCLC, 23.9 µM and 23 µM.
In the case of `N#C/C(=C\c1cn(-c2ccccc2)c2ccccc12)C(=O)O`, the GI50 is 34.7 µM in the assay on HCT-116 colon; 39.1 µM in the assay with OVCAR-4 ovarian; 35.7 µM in the assay on NCI-H23 lung; 44.2 µM in the assay on DU-145 prostate; 31.4 µM in the assay with SNB-75 CNS; 27.4 µM in the assay on MCF7 breast. The figures for the GI50 with SK-MEL-28 melanoma, in the assay with MOLT-4 leukemia and in the assay on HOP-92 NSCLC were 33.9 µM, 72.8 µM and 33.9 µM, respectively. The TGI in the assay on HCT-116 colon, in the assay on OVCAR-4 ovarian, with NCI-H23 lung, in the assay with DU-145 prostate, in the assay with SNB-75 CNS and in the assay on MCF7 breast was over 100 µM throughout. The TGI in the assay with SK-MEL-28 melanoma, in the assay with MOLT-4 leukemia and in the assay on HOP-92 NSCLC was over 100 µM throughout.
With `Cc1cccc(C(C)O)n1` (stereo unspecified), the TGI with HCT-116 colon, in the assay with OVCAR-4 ovarian, in the assay on NCI-H23 lung, with DU-145 prostate, in the assay on SNB-75 CNS and in the assay with NCI-H226 lung was over 100 µM throughout. Besides, the TGI with MCF7 breast, with SK-MEL-28 melanoma and in the assay with MOLT-4 leukemia was over 100 µM in each case.
Consider `N#Cc1nc(-c2cccc(Br)c2)cc(-c2ccc(Nc3nc(N4CCCCC4)nc(N4CCCCC4)n3)cc2)c1N`, for which the GI50 with HCT-116 colon was 1.55 µM; with NCI-H23 lung, 2.39 µM; in the assay with DU-145 prostate, 3.13 µM; in the assay with SNB-75 CNS, 1.36 µM; in the assay on NCI-H226 lung, 1.85 µM; in the assay with MCF7 breast, 1.03 µM. For the same compound, the results for the GI50 in the assay with SK-MEL-28 melanoma, in the assay with MOLT-4 leukemia and in the assay on HOP-92 NSCLC were 1.83 µM, 1.1 µM and 1.68 µM, respectively. Further, the TGI with HCT-116 colon was 3.19 µM; in the assay on NCI-H23 lung, 8.33 µM; in the assay with DU-145 prostate, 10.2 µM; in the assay with SNB-75 CNS it was 3.73 µM; in the assay on NCI-H226 lung it was 3.94 µM; in the assay with MCF7 breast, 54.4 µM. The values for the TGI with SK-MEL-28 melanoma, in the assay on MOLT-4 leukemia and in the assay on HOP-92 NSCLC were 3.89 µM, over 100 µM and 3.36 µM, respectively.
